According to US20080207759A1, “METHOD FOR PROTECTING MITOCHONDRIA” (SUCAMPO AG, priority 2007, published 2008):
No end group written: not given here.

Columns and labels:
[1] = test system: human pulmonary artery smooth muscle cells (PASMC); assay: ET-1 induced loss of mitochondrial membrane potential (JC-1 fluorescence); format: cell-based
Method: Human pulmonary Artery Smooth Muscle cells (PASMC) were grown to confluence on 10×22 mm glass cover slips in Clonetics smooth muscle basal media supplemented with growth hormones and fetal bovine serum. The cells on glass cover slips were then placed in 3 ml Hank's Balanced Salt Solution (HBSS) supplemented with […] of the mitochondrial dye JC-1 and incubated at 37° C. for 30 minute. The cells on the cover slips were then washed with 3 ml HBSS and mounted in a cuvette in a spectrofluorimeter with 3 ml HBSS. The emission spectra with excitation at 490 nm were taken over the range of 520 nm to 620 nm (150 sec). […] (0.1% acetone) FCCP, which leads complete depolarization of the mitochondrial membrane potential, was added at the end of each experiment. The spectra were normalized by dividing them by the fluorescence at 570 nm. The value obtained after FCCP treatment was assigned a value of 0 mV and the individual FCCP ratio was subtracted from each ratio point. The control (JC-1) fluorescence ratio was then assigned a value of +224 mV and the membrane potential [DmH(mV)] for each experimental point were calculated accordingly.
The cells were treated with 0.1% DMSO (vehicle for Compound 1), 1 nM Endothelin-1 (ET-1) or 1 nM ET-1 and 100 nM Compound 1 and scans were taken after 10, 30 and 60 minutes of the incubation. FCCP was added at the end and incubated for 60 minutes before taking scan. N=5 cover slips for all conditions.
The cells were treated with 0.1% DMSO or 1 nm Endothelin-1 (ET-1) and scans were taken after 30 minutes of incubation. The medium was then removed by washing the cells with fresh HBSS and scans were taken after 30 minutes. FCCP was added to the dish at the end and incubated for 60 minutes before taking scan. N=5 cover slips. In other set of 5 cover slips 1 nM Endothelin-1 (ET-1) and 100 nM Compound 1 were added and scans were taken after 30 minutes of incubation. The medium was then removed by washing the cells with fresh HBSS and 100 nM Compound 1 was added on top of it. Scans were taken after 30 minutes. FCCP was added at the end and incubated for 60 minutes before taking scan. N=3 cover slips.
The cells were treated with 1 nM Endothelin-1 (ET-1) and scans were taken after 30 minutes of incubation. The medium was then removed by washing the cells with fresh HBSS and HBSS supplemented with 100 nM Compound 1 was added to the cells. Scans were taken after 30 minutes. FCCP was added at the end and incubated for 60 minutes before taking scan. N=5 cover slips for all conditions.

[2] = test system: Human lung alveolar type II cells (A549); assay: Cytochrome c translocation into the cytosol induced by cigarette smoke extract (cytochrome c ELISA); format: cell-based; conditions: 100 nM Compound A with 1%, 2.5% or 5% CSE, 24 hrs
Method: Smoke from 8 cigarettes were bubbled slowly through 100 ml of serum free culture medium and the resulting suspension was filtered through 0.20 μm filter. The solution was considered as 100% cigarette smoke extract (CSE). Human lung alveolar type II cells (A549) were seeded 1.5×10^5 cells per well in a 96 well plate and incubated for 48 hrs. The cells were then treated separately with either 100 nM Compound A (13,14-dihydro-15-keto-16,16-difluoro-18(S)-methyl-PGE1) or 1%, 2.5% and 5% CSE. In other sets, 100 nM Compound A was added along with 1%, 2.5% or 5% CSE. All incubations were done at 37° C. for 24 hrs. After 24 hr treatment, the cells were washed with 0-4° C. PBS three times. Measurement of cytochrome c that was translocated into the cytosol, a marker of cellular injury, was performed with a cytochrome c ELISA assay kit according to the instructions provided with the kit.

In the case of CCCCC(F)(F)C(=O)CCC1CCC(=O)C1CCCCCCC(=O)O (stereo not shown) [Compound 1, 11-deoxy-13,14-dihydro-15-keto-16,16-difluoro-PGE1], the “protection against ET-1 induced loss of membrane potential (in words)” value ([1]; 100 nM Compound 1 with 1 nM ET-1, 10, 30 and 60 min) is reported as “protects against ET-1 induced loss of membrane potential at all times tested”, the mitochondrial membrane potential ([1]; Example 1-2, 1 nM ET-1 along with 100 nM Compound 1, 30 min) is reported as 137.1±4.7 mV and the mitochondrial membrane potential ([1]; Example 1-2, after removal of ET-1 with continued 100 nM Compound 1, further 30 min) is reported as 115.3±2.3 mV. The “mitochondrial membrane potential (rescue)” value ([1]; Example 1-3, ET-1 30 min, then ET-1 removed and 100 nM Compound 1 added, 30 min) was 77.2±2.7 mV, the mitochondrial membrane potential ([1]; PASMC, 1 nM ET-1 and 100 nM Compound 1, 10 min, control taken as 224 mV) was 114.2±2.6 mV and the mitochondrial membrane potential ([1]; PASMC, 1 nM ET-1 and 100 nM Compound 1, 30 min, control taken as 224 mV) was 104.02±5.0 mV. The mitochondrial membrane potential ([1]; PASMC, 1 nM ET-1 and 100 nM Compound 1, 60 min, control taken as 224 mV) was 73.1±2.4 mV.

In the case of CC[C@H](C)CC(F)(F)C(=O)CC[C@H]1[C@H](O)CC(=O)[C@@H]1CCCCCCC(=O)O [Compound A, 13,14-dihydro-15-keto-16,16-difluoro-18(S)-methyl-PGE1], the “cytochrome c translocation by CSE (in words)” value [2] is reported as “protected against cytochrome c translocation by CSE”.

In the case of “Endothelin-1 (CSCSSLMDKECVYFCHLDIIW; ends and bridges not checked; cysteine pairing not given here; UniProt P05305 53-73, looked up) [ET-1, reference compound]”, the mitochondrial membrane potential ([1]; Example 1-2, ET-1 30 min, then ET-1 removed, scan after 30 min) is reported as 49.3±2.2 mV, the mitochondrial membrane potential ([1]; Examples 1-2 and 1-3, ET-1 alone, 30 min) is reported as 50.3±5.6 mV and the mitochondrial membrane potential ([1]; PASMC, 1 nM ET-1 alone, 10 min, control taken as 224 mV) is reported as 54.5±4.3 mV. For the same molecule, the mitochondrial membrane potential ([1]; PASMC, 1 nM ET-1 alone, 30 min (Example 1-1), control taken as 224 mV) was 28.0±2.8 mV and the mitochondrial membrane potential ([1]; PASMC, 1 nM ET-1 alone, 60 min, control taken as 224 mV) was 13.1±1.0 mV.
